Test results reported in ChEMBL document CHEMBL1909046, “DrugMatrix in vitro pharmacology data”.

Columns and labels:
[1] = target: T1, Receptor-type tyrosine-protein phosphatase C (Homo sapiens, UniProt P08575); parameters: species or system Escherichia coli;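 further: inhibition of CD45 enzyme activity measured using DiFMUP as substrate; in other assays of this panel Not Active means under 50% inhibition at 10 µM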
T1 sequence (P08575 whole entry): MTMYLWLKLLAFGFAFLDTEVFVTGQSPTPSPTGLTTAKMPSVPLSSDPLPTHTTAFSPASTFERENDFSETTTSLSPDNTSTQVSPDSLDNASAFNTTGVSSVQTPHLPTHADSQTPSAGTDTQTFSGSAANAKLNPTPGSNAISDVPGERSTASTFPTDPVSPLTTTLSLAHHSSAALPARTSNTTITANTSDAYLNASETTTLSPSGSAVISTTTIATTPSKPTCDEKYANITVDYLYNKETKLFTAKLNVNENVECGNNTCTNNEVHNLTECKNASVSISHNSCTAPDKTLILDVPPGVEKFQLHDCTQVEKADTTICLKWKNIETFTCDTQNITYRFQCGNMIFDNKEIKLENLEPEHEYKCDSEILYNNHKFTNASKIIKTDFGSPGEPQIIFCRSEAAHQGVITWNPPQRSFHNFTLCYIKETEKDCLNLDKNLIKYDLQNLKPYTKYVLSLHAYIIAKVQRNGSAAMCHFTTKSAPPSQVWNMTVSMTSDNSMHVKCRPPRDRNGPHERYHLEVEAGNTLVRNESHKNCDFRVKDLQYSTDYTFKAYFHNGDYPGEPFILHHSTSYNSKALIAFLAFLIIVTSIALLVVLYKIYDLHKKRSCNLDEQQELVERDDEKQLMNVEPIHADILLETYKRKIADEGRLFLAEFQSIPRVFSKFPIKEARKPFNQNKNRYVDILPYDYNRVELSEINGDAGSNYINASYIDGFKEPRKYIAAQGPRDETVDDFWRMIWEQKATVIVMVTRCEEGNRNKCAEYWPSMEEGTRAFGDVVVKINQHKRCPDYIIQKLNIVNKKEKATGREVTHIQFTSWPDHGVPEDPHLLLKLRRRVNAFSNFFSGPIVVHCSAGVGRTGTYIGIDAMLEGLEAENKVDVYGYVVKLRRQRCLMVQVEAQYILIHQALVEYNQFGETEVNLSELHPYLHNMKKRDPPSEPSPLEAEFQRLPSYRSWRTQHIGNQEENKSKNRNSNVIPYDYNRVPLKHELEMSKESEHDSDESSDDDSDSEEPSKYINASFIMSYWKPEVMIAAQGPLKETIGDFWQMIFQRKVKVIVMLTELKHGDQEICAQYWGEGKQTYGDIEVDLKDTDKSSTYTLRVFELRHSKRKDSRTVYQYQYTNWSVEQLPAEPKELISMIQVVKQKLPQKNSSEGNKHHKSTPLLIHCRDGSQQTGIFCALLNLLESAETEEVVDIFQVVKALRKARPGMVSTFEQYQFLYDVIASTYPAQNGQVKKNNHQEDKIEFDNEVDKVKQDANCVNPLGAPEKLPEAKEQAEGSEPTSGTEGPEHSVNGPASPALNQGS

[2] = target: Sodium-dependent noradrenaline transporter (Homo sapiens, UniProt P23975); assay: DRUGMATRIX: Norepinephrine Transporter radioligand binding (ligand: [125I] RTI-55); assay type: cell membranes, MDCK, Membrane; conditions: mdck; Not Active = under 50% inhibition at 10 µM
Sequence of Sodium-dependent noradrenaline transporter (P23975 whole entry): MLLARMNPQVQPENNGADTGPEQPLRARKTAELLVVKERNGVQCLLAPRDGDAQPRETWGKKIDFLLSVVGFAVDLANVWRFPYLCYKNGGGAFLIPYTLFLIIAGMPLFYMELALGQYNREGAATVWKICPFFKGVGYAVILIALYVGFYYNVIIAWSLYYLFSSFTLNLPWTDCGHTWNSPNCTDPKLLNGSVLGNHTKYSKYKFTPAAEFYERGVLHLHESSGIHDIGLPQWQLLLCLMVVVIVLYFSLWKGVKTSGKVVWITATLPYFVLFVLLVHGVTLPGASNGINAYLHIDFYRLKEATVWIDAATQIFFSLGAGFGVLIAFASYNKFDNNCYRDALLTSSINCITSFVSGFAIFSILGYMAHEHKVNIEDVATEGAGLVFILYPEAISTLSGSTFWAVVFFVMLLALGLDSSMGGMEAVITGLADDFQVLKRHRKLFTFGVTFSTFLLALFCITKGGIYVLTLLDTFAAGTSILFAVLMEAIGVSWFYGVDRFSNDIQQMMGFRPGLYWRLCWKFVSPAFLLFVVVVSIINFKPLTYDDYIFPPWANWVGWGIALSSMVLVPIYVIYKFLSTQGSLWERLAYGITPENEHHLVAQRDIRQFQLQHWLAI

[3] = target: T2, Neuropeptide Y receptor type 2 (Homo sapiens, UniProt P49146); assay type: cell membranes, Membrane; conditions: kan-ts; further: in other assays of this panel Not Active means under 50% inhibition at 10 µM
T2 sequence (P49146 whole entry): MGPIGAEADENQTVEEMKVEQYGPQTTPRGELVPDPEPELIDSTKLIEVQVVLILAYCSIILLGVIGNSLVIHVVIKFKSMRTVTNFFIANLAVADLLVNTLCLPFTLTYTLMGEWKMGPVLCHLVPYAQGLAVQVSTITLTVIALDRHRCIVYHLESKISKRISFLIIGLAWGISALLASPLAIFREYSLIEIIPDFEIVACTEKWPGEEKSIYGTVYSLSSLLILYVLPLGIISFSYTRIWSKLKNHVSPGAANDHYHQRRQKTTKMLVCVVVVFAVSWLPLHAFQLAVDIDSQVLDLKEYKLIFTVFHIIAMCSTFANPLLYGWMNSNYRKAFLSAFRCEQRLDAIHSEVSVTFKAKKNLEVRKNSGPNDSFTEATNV

[4] = target: Platelet-activating factor receptor (Homo sapiens, UniProt P25105); assay: biochemical; assay type: tissue-based; conditions: platelet; further: in other assays of this panel Not Active means under 50% inhibition at 10 µM
Sequence of Platelet-activating factor receptor (P25105 whole entry): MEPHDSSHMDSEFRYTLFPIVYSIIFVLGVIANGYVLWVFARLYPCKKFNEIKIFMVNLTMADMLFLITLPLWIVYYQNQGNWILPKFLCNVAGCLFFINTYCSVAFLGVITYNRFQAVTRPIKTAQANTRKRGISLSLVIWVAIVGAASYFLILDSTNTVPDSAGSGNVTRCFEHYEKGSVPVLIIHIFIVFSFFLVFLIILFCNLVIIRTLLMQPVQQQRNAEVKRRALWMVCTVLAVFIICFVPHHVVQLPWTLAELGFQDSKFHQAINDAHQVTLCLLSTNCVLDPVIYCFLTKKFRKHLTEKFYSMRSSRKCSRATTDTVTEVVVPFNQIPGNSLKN

Glycine receptor = Glycine receptor (Rattus norvegicus, UniProt P22771+P24524+P07727+P20781); assay type: cell membranes, Wistar, Spinal cord, Membrane; further: in other assays of this panel Not Active means under 50% inhibition at 10 µM
Cathepsin G = target: T3, Cathepsin G (Homo sapiens, UniProt P08311); assay type: tissue-based; conditions: neutrophil
T3 sequence (P08311 whole entry): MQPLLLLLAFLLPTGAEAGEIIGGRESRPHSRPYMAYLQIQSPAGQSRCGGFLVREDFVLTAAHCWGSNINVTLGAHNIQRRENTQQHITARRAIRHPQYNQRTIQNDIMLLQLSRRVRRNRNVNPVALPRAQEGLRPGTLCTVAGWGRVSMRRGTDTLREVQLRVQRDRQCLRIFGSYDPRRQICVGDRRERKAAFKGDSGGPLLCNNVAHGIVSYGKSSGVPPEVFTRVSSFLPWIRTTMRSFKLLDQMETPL

[5] = target: T4, Muscarinic acetylcholine receptor M5 (Homo sapiens, UniProt P08912); assay type: cell membranes, CHO-K1, Membrane; conditions: cho-k1; further: in other assays of this panel Not Active means under 50% inhibition at 10 µM
T4 sequence (P08912 whole entry): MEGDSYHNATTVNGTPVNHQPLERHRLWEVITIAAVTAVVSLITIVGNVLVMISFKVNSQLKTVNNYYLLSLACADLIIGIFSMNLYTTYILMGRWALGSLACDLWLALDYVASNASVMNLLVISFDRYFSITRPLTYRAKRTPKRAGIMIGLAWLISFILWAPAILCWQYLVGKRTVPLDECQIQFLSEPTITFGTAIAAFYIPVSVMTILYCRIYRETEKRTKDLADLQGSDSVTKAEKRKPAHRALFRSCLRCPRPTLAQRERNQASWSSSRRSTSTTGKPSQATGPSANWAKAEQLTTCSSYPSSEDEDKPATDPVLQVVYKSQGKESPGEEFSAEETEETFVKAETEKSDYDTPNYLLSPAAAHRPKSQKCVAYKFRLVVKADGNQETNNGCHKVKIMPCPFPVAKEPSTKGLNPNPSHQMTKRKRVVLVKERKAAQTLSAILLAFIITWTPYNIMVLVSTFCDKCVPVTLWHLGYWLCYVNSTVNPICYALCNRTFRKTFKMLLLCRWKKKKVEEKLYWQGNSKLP

Measured: IC50

NCC(=O)O [GLYCINE]
Not Active: all assays above

CN1C(C(=O)Nc2ccccn2)=C(O)c2ccccc2S1(=O)=O [PIROXICAM]
Not Active: all assays above

CCc1ccc(C(=O)C(C)CN2CCCCC2)cc1 (centres undefined) [EPERISONE]
Not Active: all assays above

CC(=O)[C@@]1(O)CC[C@H]2[C@@H]3C[C@H](C)C4=CC(=O)C=C[C@]4(C)[C@@]3(F)[C@@H](O)C[C@@]21C [FLUOROMETHOLONE]
Not Active: all assays above

CCC1(c2ccccc2)C(=O)NCNC1=O [PRIMIDONE]
Not Active: all assays above

N#C[C@H](O[C@@H]1O[C@H](CO[C@@H]2O[C@H](CO)[C@@H](O)[C@H](O)[C@H]2O)[C@@H](O)[C@H](O)[C@H]1O)c1ccccc1 [AMYGDALIN]
Not Active: all assays above

CC(C)(Oc1ccc(CCNC(=O)c2ccc(Cl)cc2)cc1)C(=O)O [BEZAFIBRATE]
Not Active: all assays above

CC=CC(=O)N(CC)c1ccccc1C
Not Active: all assays above

CC(C)n1c(/C=C/C(O)CC(O)CC(=O)O)c(-c2ccc(F)cc2)c2ccccc21 (centres undefined) [FLUVASTATIN]
Not Active: all assays above

CN1C[C@H](C(=O)N[C@]2(C)O[C@@]3(O)[C@@H]4CCCN4C(=O)[C@H](Cc4ccccc4)N3C2=O)C=C2c3cccc4[nH]cc(c34)C[C@H]21 [ERGOTAMINE]
Not Active: all assays above

CC(=O)OCC(=O)[C@@]1(OC(C)=O)[C@@H](C)C[C@H]2[C@@H]3C[C@H](F)C4=CC(=O)C=C[C@]4(C)[C@@]3(F)[C@@H](O)C[C@@]21C [DIFLORASONE DIACETATE]
Not Active: all assays above

CC1(C)S[C@@H]2[C@H](NC(=O)[C@H](N)c3ccc(O)cc3)C(=O)N2[C@H]1C(=O)O [AMOXICILLIN]
Not Active: all assays above

C=C(C)[C@@H]1[C@H]2OC(=O)[C@@H]1[C@]1(O)C[C@H]3O[C@]34C(=O)O[C@H]2[C@]14C [PICROTOXININ]
Not Active: all assays above

c1ccc2c(c1)cc1ccc3cccc4ccc2c1c34
Not Active: all assays above

C[C@]12CCC(=O)C=C1CC[C@@H]1[C@@H]2C(=O)C[C@@]2(C)[C@H]1CC[C@]2(O)C(=O)CO [CORTISONE]
Not Active: all assays above

CC[C@@]1(O)C(=O)OCc2c1cc1n(c2=O)Cc2cc3ccccc3nc2-1 [CAMPTOTHECIN]
Not Active: all assays above

COc1ccc2c(c1)c(CC(=O)OCC(=O)O)c(C)n2C(=O)c1ccc(Cl)cc1 [ACEMETACIN]
Not Active: all assays above
